Source: ChEMBL document CHEMBL3217523, “Design and syntheses of some iminosugar derivatives as potential immunosuppressants” (Medchemcomm, 2011)
Calls of active or inactive are those of the source. The calls are words filed in the database; no cut-off is given here.

Legend:
[1] = (§1) Antiproliferative activity against Con A-induced BALB/c mouse splenocytes at 30 uM after 48 hrs by CCK-8 method relative to control; type: functional; conditions: Splenocyte
[2] = Antiproliferative activity against Con A-induced BALB/c mouse splenocytes after 48 hrs by CCK-8 method relative to control; type: functional, cell-based; conditions: Splenocyte
[3] = Cytotoxicity against BALB/c mouse splenocytes up to 110 uM after 48 hrs by CCK-8 method; type: cell-based; conditions: splenocyte
Splenocyte = test: as §1; type: functional

Structure (SMILES)	inhibition at 30 µM [1] [%]	also measured
OC[C@@H]1N[C@H](CO)[C@H](O)[C@@H](O)[C@H]1O	9.7	
CCCCCCN1[C@H](CO)[C@H](O)C(O)[C@@H](O)[C@H]1CO (stereo not given in full)	25.5	
CCCCCCCCCN1[C@H](CO)[C@H](O)[C@H](O)[C@@H](O)[C@H]1CCl	54.1	IC50 [2]: 22 µM; Activity [3]: Non-toxic
O=C(O)[C@H]1N[C@H](CO)[C@H](O)[C@H](O)[C@H]1O	7.2	
CCCCCCCCCN1[C@H](CCl)[C@H](O)[C@@H](O)[C@@H](O)[C@@H]1CO	43.6	IC50 [2]: 45 µM; Activity [3]: Non-toxic
O=C(O)[C@H]1N[C@@H](CO)[C@H](O)[C@H](O)[C@H]1O		inhibition (Splenocyte): inactive
O=C(O)[C@@H]1N[C@@H](CO)[C@H](O)[C@H](O)[C@H]1O	21.2	
OCCC[C@H]1N[C@@H](CO)[C@H](O)[C@H](O)[C@H]1O	19.3	
O=C(O)CC[C@H]1N[C@H](CO)[C@H](O)[C@H](O)[C@H]1O	4.9	
O=C(O)CC[C@H]1N[C@@H](CO)[C@H](O)[C@H](O)[C@H]1O	6.4	
N#CC[C@H]1N[C@H](CO)[C@H](O)[C@H](O)[C@H]1O	27.9	
OC[C@H]1N[C@H](CCl)[C@H](O)[C@@H](O)[C@H]1O	20.8	
OC[C@H]1C[C@@H](O)[C@@H](O)[C@@H](CO)N1	22.3	
OC[C@H]1N[C@H](CO)[C@H](O)C(O)[C@H]1O (stereo not given in full)	7.8	
OCCC[C@H]1N[C@H](CO)[C@H](O)[C@H](O)[C@H]1O	14.6	
CCCCCCN1[C@H](CO)[C@H](O)[C@H](O)[C@@H](O)[C@H]1CCl	38.9	
